Test results: patent publication US20180021429A1, “ANTICANCER AGENTS OR ANTIMETASTATIC AGENTS USING FSTL1 AND COMBINATION DRUG THEREOF” (PHARMA FOODS INTERNATIONAL CO., LTD., priority 2015, published 2018)

System: mouse lung cancer 3LL
Test: Combined use with CPA in subcutaneously mouse lung cancer 3LL-transplanted model (Example 35)
Format: in vivo
Settings: CPA 2 mg/mouse/day i.p. days 4-7; anti-FSTL1 antibody 5 mg/kg i.p. days 8 and 11

With `O=P1(N(CCCl)CCCl)NCCCO1` (stereo not shown) [CPA, cyclophosphamide] the “subcutaneous tumor growth / antitumor effect” value was “strongly suppressed subcutaneous tumor growth”.
